Calls of active or inactive are those of the source. The rule behind the calls is not given here.
What was measured:
3T3-L1 [1] = experiment: Anti-adipogenic activity in differentiated mouse 3T3L1 cells assessed as reduction in 11beta-HSD1 expression at 50 uM measured on day 3 by Western blot analysis; assay type: functional, cell-based
3T3-L1 [2] = experiment: Cytotoxicity against mouse 3T3L1 preadipocytes up to 1 mM measured after 72 hrs under non-differentiating medium by celltiter-glo luminescent cell viability assay; assay type: cell-based; settings: 3t3-l1, 72 h
[3] = target: 11-beta-hydroxysteroid dehydrogenase 1 (Homo sapiens, UniProt P28845); experiment: Inhibition of 11beta-HSD1 in human microsomes using [3H] cortisone as substrate by scintillation proximity assay
3T3-L1 [4] = experiment: Anti-adipogenic activity in differentiated mouse 3T3L1 cells assessed as reduction in mitochondrial mass at 50 uM measured on day 7 by mitotracker deep red/hoechst 33342 staining-based confocal imaging analysis; assay type: functional, cell-based
3T3-L1 [5] = experiment: Cell cycle arrest in mouse 3T3L1 cells up to 1 mM measured after 24 hrs under induction medium containing dehydrocorticosterone/cortisone by propidium iodide staining-based flow cytometry; assay type: ADME; settings: 3t3-l1, 24 h
Homo sapiens [6] = experiment: (§1) Anti-adipogenic activity in human subcutaneous preadipocytes assessed as reduction in pre-adipocyte differentiation into matured adipocytes at 50 uM incubated for 48 hrs under induction medium containing hydrocortisone hemi-succinate prior to compound washout followed by shifting to differentiation medium containing compound supplemented with fresh medium every 48 to 72 hrs for 9 to 14 days by oil red O staining-based microscopic analysis; assay type: functional, cell-based
3T3-L1 [7] = experiment: Anti-adipogenic activity in differentiated mouse 3T3L1 cells assessed as reduction in PPARgamma expression at 50 uM measured on day 7 by Western blot analysis; assay type: functional, cell-based
3T3-L1 [8] = experiment: Anti-adipogenic activity in differentiated mouse 3T3L1 cells assessed as reduction in FABP4 mRNA expression at 50 to 100 uM measured after 2 to 7 days by SYBR green dye-based qRT-PCR analysis relative to control; assay type: functional
Homo sapiens [9] = species on record: Homo sapiens; experiment: as §1, with “visceral” for “subcutaneous”, “decrease” for “reduction”, “lipid accumulation” for “pre-adipocyte differentiation into matured adipocytes”; assay type: functional, cell-based
[10] = target: T1, 11-beta-hydroxysteroid dehydrogenase type 2 (Homo sapiens, UniProt P80365); experiment: Inhibition of 11beta-HSD2 (unknown origin) expressed in HEK293 cells using cortisone as substrate measured after 2 hrs in presence of NAD+ by HTRF assay; assay type: ADME, cell-based
T1 sequence (P80365 whole entry): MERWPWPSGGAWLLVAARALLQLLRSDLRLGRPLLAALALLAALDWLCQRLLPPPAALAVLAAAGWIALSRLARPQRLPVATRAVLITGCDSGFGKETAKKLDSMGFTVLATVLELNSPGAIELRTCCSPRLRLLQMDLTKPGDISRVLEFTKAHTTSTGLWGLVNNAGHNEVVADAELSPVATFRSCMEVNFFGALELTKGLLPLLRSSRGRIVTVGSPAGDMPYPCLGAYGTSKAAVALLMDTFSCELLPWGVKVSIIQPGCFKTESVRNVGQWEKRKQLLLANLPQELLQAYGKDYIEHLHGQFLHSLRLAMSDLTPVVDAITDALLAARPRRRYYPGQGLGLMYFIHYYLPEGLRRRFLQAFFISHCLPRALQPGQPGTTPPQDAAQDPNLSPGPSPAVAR

3T3-L1 [11] = experiment: Cell cycle arrest in mouse 3T3L1 preadipocytes up to 1 mM measured after 24 hrs under non-differentiating medium by propidium iodide staining-based flow cytometry; assay type: ADME; settings: 3t3-l1, 24 h
3T3-L1 [12] = experiment: Anti-adipogenic activity in differentiated mouse 3T3L1 cells assessed as reduction in FASN mRNA expression at 50 to 100 uM measured after 2 to 7 days by SYBR green dye-based qRT-PCR analysis relative to control; assay type: functional
[13] = target: T2, Glucocorticoid receptor (Homo sapiens) (UniProt P04150); experiment: Antagonist activity at GR in human MDA-MB-231 cells at 50 uM measured after 4 hrs in presence of dexamethasone by luciferase reporter gene assay; assay type: cell-based
T2 sequence (whole entry): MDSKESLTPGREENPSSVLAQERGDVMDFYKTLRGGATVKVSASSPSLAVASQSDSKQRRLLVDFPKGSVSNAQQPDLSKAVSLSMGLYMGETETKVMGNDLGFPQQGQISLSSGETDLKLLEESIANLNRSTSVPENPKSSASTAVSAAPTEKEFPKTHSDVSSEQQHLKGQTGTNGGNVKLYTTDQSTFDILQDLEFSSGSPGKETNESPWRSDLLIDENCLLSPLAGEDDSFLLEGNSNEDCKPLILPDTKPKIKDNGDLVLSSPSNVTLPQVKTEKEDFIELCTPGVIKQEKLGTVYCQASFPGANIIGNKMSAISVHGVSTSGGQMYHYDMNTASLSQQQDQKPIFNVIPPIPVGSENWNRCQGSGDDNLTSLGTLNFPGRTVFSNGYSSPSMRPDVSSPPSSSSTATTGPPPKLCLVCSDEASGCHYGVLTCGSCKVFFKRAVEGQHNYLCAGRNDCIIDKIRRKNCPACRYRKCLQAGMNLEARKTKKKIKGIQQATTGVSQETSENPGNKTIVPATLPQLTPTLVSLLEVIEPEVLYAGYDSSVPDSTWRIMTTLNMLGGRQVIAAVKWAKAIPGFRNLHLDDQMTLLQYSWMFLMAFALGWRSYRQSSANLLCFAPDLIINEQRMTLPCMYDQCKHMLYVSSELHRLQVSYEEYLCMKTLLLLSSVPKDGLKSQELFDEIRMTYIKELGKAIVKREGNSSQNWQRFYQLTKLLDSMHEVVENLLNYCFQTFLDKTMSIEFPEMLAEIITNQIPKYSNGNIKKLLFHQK

[14] = Stability in mouse plasma; assay type: ADME, cell-free
[15] = target: 11-beta-hydroxysteroid dehydrogenase 1 (Homo sapiens, UniProt P28845, C272S); experiment: Inhibition of N-terminal MKHQHQHQHQHQHQQPL-tagged 11beta-HSD1 C272S mutant (unknown origin) expressed in Escherichia coli BL21 (DE3) using cortisol as substrate measured for 1 hr in presence of NADPH by fluorescence assay
[16] = Half life in human plasma; assay type: ADME, cell-free
Fibroblast = experiment: Effect on nascent protein synthesis in mouse fibroblasts assessed as reduction in O-Propargyl-puromycin incorporation at 50 uM measured after 2 hrs by fluorescent azide/pico green dye-based confocal microscopic analysis; assay type: ADME, cell-based

Sequence of 11-beta-hydroxysteroid dehydrogenase 1 (Homo sapiens, UniProt P28845) (P28845 whole entry): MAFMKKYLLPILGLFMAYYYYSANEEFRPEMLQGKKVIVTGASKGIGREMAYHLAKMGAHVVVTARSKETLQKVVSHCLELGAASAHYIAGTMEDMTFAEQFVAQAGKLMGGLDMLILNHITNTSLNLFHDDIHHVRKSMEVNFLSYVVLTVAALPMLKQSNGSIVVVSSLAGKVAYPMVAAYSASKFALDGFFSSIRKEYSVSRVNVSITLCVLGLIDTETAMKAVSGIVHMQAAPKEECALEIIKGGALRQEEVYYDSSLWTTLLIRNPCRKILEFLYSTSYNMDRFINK
Sequence of 11-beta-hydroxysteroid dehydrogenase 1 (Homo sapiens, UniProt P28845, C272S) (P28845 whole entry C272S): as the sequence (P28845 whole entry) above, with C272S counted along it

IC50 [3]: 13 nM
IC50 [10]: > 500 µM
Activity [13]: inactive
Stability [14]: Unstable
IC50 [15]: 4.1 µM
half-life [16]: > 2880 min
SMILES: CC1=CC[C@@]2(C[C@@H]1O)[C@@H](C(=O)O)CC[C@H]2C(C)C
Activity (3T3-L1 [1]): inactive
Activity (3T3-L1 [2]): Non-Toxic
Activity (3T3-L1 [4]): Active
Activity (3T3-L1 [5]): Non-Toxic
Activity (Homo sapiens [6]): Active
Activity (3T3-L1 [7]): Active
fold change (FC) (3T3-L1 [8]): <10
Activity (Homo sapiens [9]): Active
Activity (3T3-L1 [11]): Non-Toxic
fold change (FC) (3T3-L1 [12]): <10
Activity (Fibroblast): Non-Toxic

Reference: ChEMBL document CHEMBL4311946, “Mechanistic Insight on the Mode of Action of Colletoic Acid” (J Med Chem, 2019)
